In series [1] the test system is HCC827 cells. As to the kind of experiment: Inhibitory effect on HCC827 cell proliferation. It is filed as cell-based. The note with it: Homo sapiens; HCC827, 72 h incubation, Cell Counting-Lite 2.0. The protocol: (1) Cell plating: First, tumor cells HCC827 were cultured with corresponding culture medium, the cells were digested with trypsin and centrifuged, then the cells were resuspended and counted, and the cells were adjusted to an appropriate concentration for plating.
(§1) Co-incubation of the compounds of the present invention and tumor cells: After cell adherence, the culture medium in the cells was removed, and the diluted bioactive molecules (compounds of the present invention) were added into the wells of the above plates, and incubated for 72 h.
(§2) In vitro cell viability detection: After the incubation, 50 μL of Cell Counting-Lite™ 2.0 reagent (Vazyme) was added to each well, shaken and mixed well in the dark, and reacted for 10 minutes before testing. Microplate reader (manufacturer: BMG, Model: PHERA Star-FS) was used for reading. The Cell Counting-Lite™ without cells was used to obtain the background RLU, and the Cell Counting-Lite™ with cells was used obtain the solvent RLU. Cell inhibition rate=1−(sample RLU−background RLU)/(solvent RLU−background RLU)×100%. The half-inhibition concentration (IC50) of compound was calculated by fitting the curve according to the four-parameter model. RLU: relative light unit.

Series [2] concerns HCC1954 cells. As to the kind of experiment: Inhibitory effect on HCC1954 cell proliferation. It is filed as cell-based. The note with it: Homo sapiens; HCC1954, 72 h incubation, Cell Counting-Lite 2.0. The protocol:
(1) Cell plating: First, tumor cells HCC1954 were cultured with corresponding culture medium, the cells were digested with trypsin and centrifuged, then the cells were resuspended and counted, and the cells were adjusted to an appropriate concentration for plating.
as §1, §2

The subject of series [3] is NCI-H1975 cells. In words: Inhibitory effect on NCI-H1975 cell proliferation. It is filed as cell-based. The settings on record: Homo sapiens; NCI-H1975, 72 h incubation, Cell Counting-Lite 2.0. The protocol:
(1) Cell plating: First, tumor cells NCI-H1975 were cultured with corresponding culture medium, the cells were digested with trypsin and centrifuged, then the cells were resuspended and counted, and the cells were adjusted to an appropriate concentration for plating.
as §1, §2

Series [4] can be described thus: Permeability test in MDCK cell model. It is filed as in vitro ADME. The note with it: dog, pH 7.4. The protocol:
(§3) The MDCK cell model was used to evaluate the permeability of the compounds, the LC-MS/MS method was used to determine the concentration of the substance to be tested, and the apparent permeability coefficient (Papp) and efflux ratio were calculated [Efflux ratio=Papp(B→A)/Papp(A→B)].
(§4) Complete culture medium: 10% fetal bovine serum and 1% penicillin/streptomycin were added to MEM culture medium.
(§5) Digestive solution: 0.05% trypsin-EDTA.
(§6) HBSS buffer: HBSS containing Ca^2+, Mg^2+.
(§7) Permeating solution: HBSS containing 10 mM Hepes, 4% BSA, pH 7.4.
(§8) Compound stock solution: a certain amount of the compound to be tested was weighed and formulated with DMSO to prepare a 10 mM stock solution.
(§9) MDCK cells (26th generation) in the logarithmic growth phase were digested and dispersed evenly with 0.05% trypsin-EDTA, and then inoculated into the Transwell chamber at 3*10^5 cells/cm^2, with 200 μL on the A side and 1000 μL on the B side. After inoculation, the medium was changed once every day and the culturing was carried out for 3 to 4 days.
(§10) The cell culture medium was discarded by pipetting, then washing was carried out three times with the permeating solution. 200 μL of permeating solution was added to A side and 1000 μL of permeating solution was added to B side. A voltage resistance meter was used to measure the cell transmembrane resistance (TEER). After the TEER value of the cells was measured, the permeating solution on both sides was discarded by pipetting, and the solution was added. After 120 minutes, 150 μL of samples were taken from A side and B side, respectively, and frozen at −80° C. before testing. Then, 10 μg/ml Fluorescent Yellow was added to A side. After incubation for 30 minutes, 100 μL of solution at B side was pipetted and added into a 96-well white plate. The fluorescence value was measured at the wavelengths of Ex=485 nm and Em=530 nm using a microplate reader, and the permeance was calculated (which was less than 1%).
(§11) 80 μL of the compound to be tested was taken, added to 320 μL of acetonitrile solution containing internal standard (30 ng/mL Tolbutamide), vortexed, and centrifuged for 10 min (4000 rpm, 4° C.), and the supernatant was taken for LC-MS/MS analysis.
(§12) Excel 2013 was used to calculate Papp values and Papp ratio of B side→A side to A side→B side, and the recovery rates of each Control Compound and the compound to be tested were calculated.
(§13) Apparent permeability coefficient (Papp) of compound was calculated according to the following formula:
(§14) C0 was the initial concentration (μM) of the drug to be tested at the donor, (dCr/dt)×Vr was the rate (μM/s) at which the drug to be tested appeared at the receiver, Vr was the solution volume (mL) at the receiver, and A was the surface area (cm^2) of polycarbonate membrane.
(§15) Evaluation criteria: Low permeability: Papp≤0.5 (×10^−6 cm/s) • Medium permeability: 0.5<Papp<2.5 (×10^−6 cm/s) • High permeability: Papp≥2.5 (×10^−6 cm/s)
(§16) Efflux ratio (ER) was calculated according to Papp:
(§17) [formula] • wherein, Papp(B→A) was the apparent permeability coefficient of the drug to be tested from the BL (baso-lateral) end to the AP (apical) end, and Papp (A→B) was the apparent permeability coefficient of the drug to be tested from the AP end to the BL end.
(§18) • Probably being an efflux transporter substrate (Probably): ERa≥2 and ERa/ERi>2 • Likely being an efflux transporter substrate (Likely): ERa≥2 • Unlikely or impossibly being an efflux transporter substrate (Poor or non): ERa<2 • wherein, ERi and ERa were the efflux ratios of the compound to be tested in the presence and absence of P-gp inhibitor, respectively.

Series [5] relates to MDCK cells. In words: Permeability test in MDCK cell model. It is filed as in vitro ADME. The protocol:
as §3, §4, §5, §6, §7, §8, §9, §10, §11, §12, §13, §14, §15, §16, §17, §18

Series [6] can be described thus: Liver microsome stability test (human). It is filed as in vitro ADME. The settings on record: human, microsomes, 0.25 h, 1 μM. The protocol:
(§19) Liver microsomes were used as an in vitro model to evaluate the metabolic stability of compounds in human and monkey liver microsomes.
Mixed human liver microsomes: Xenotech, USA
(§20) The positive compound testosterone or the tested substance (liver microsome solution, 50 μL) was mixed with PBS (25 μL). After pre-incubation (37° C.) for 5 min, NADPH (25 μL) was added to make the final concentration of the positive compound or the tested substance 1 μM, the final concentration of human liver microsomal protein was 0.5 mg/ml, the final concentration of monkey liver microsomal protein was 1 mg/ml, the tested substance group and the positive compound group were incubated for 0 min, 15 min. After being reacted for corresponding time, 300 μL of ice-cold acetonitrile containing internal standard was added to terminate the reaction, vortexed, and stored at −80° C. for later analysis. All incubated samples were double samples.
(§21) The tested compound was vortexed for 1 min, and centrifuged for 10 min (4° C., 4000 rpm), and 300 μL of the supernatant was taken for LC-MS/MS analysis.
(§22) Excel software was used to calculate the remaining rate (%) of the drug in primary form in the incubation system: […]
A general note: Liver microsomes are vesicles of endoplasmic reticulum, rich in cytochrome P450 enzymes.

Series [7] in a line: Liver microsome stability test (monkey). It is filed as in vitro ADME, cynomolgus. The note with it: male, monkey, microsomes, 0.25 h, 1 μM. The protocol: as §19
Mixed male cynomolgus liver microsomes: RILD, China
as §20, §21, §22

What is called IC50 is the concentration at which inhibition is half-maximal. One may read the Papp A→B as how fast a substance crosses the layer from the apical side. By Papp B→A is commonly meant the apparent permeability from the basolateral to the apical side of a cell layer. In general, efflux ratio refers to the permeability from basolateral to apical divided by that in the opposite direction, in the common usage. `CC[C@@]1(O)C(=O)OCc2c1cc1n(c2=O)Cc2c-1nc1cc(F)c(Cl)c3c1c2[C@@H](NC(=O)C[C@H](C)O)CC3` [Compound 2-25, (S)—N-((1S,9S)-4-chloro-9-ethyl-5-fluoro-9-hydroxy-10,13-dioxo-2,3,9,10,13,15-hexahydro-1H,12H-benzo[d]pyrano[3′,4′:6,7]indolizino[1,2-b]quinolin-1-yl)-3-hydroxybutyamide] showed a half-inhibitory concentration (IC50) in series [1] of 110 nM. Moreover, the IC50 in series [2] is 171 nM. Further, half-maximal inhibition in series [3] (IC50) was put at 29.4 nM. In series [4], the Papp A→B at 120 min, 2 μM was 0.78 ×10⁻⁶ cm/s; the Papp B→A at 120 min, 2 μM is 3.56 ×10⁻⁶ cm/s; the efflux ratio at 120 min, 2 μM is 4.57. Further, the “Permeability class according to the Papp(A→B) results” value in series [5] is reported as “medium-permeability”. Besides, the “Remaining rate (%) Human” value in series [6] was 80.0%. The “Remaining rate (%) Monkey” value in series [7] came to 79.5%.

Values taken from US20260258051A1, “Camptothecin Compound, Preparation Method Therefor and Use Thereof” (SICHUAN KELUN-BIOTECH BIOPHARMACEUTICAL CO., LTD., priority 2022, published 2026).
